A word on the Ki: it is the equilibrium dissociation constant of an inhibitor or competing ligand from its target. High values mean lower affinity, low ones higher affinity.

The assay concerns the target T1, Glutamate racemase (Limosilactobacillus fermentum, UniProt Q03469).
T1 sequence (Q03469 whole entry): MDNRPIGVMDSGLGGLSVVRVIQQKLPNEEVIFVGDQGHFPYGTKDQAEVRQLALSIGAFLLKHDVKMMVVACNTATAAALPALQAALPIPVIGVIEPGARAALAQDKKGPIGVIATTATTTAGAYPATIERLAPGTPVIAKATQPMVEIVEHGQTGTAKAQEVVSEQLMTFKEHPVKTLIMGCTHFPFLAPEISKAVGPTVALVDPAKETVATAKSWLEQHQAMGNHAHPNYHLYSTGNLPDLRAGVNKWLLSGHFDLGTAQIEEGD
Put plainly: Binding affinity against Glutamate Racemase.

Take `N[C@H](C[C@H](Cc1ccc2ccccc2c1)C(=O)O)C(=O)O` [2-Amino-4-naphthalen-2-ylmethyl-pentanedioic acid]: the Ki turned out to be 16 nM.

The values are drawn from BindingDB's records for doi:10.1021/jm020901d (Eli Lilly, 2002).
